The numbers were not newly measured in US6509043B1, “Composition comprising soy protein, dietary fibres and a phytoestrogen compound and use thereof in the prevention and/or treatment of pulmonary diseases” (Nutri Pharma ASA, priority 2001, dated 2003), which cites them from elsewhere.

For this series, the system named is estrogenic effect. To be noted: in vitro; reported by Knight (Maturitas 22, 167-175 (1995)).

With `O=c1c(-c2ccc(O)cc2)coc2cc(O)ccc12` [daidzein], the “relative estrogenic potency as compared to estradiol (relative potency of 100)” value is listed as 0.013.
